Data on 13 compounds can be found in patent publication US11053239B2, “Compounds as BLC-2-selective apoptosis-inducing agents” (Fochon Pharmaceuticals, Ltd., priority 2017, dated 2021).

The test system of assay [1] is DOHH2 cells. In words: Cell proliferation assay (MTS), DOHH2 cells. The class given is cell-based. The settings on record: DOHH2 (DSMZ ACC 47) cell proliferation, 5000 cells/well, 120 h, MTS, mechanism-based readout of Bcl-2 inhibition, read-out: DOHH2 IC50. The source says: (§1) MTS testing kit was purchased from Promega. The RPMI-1640, Fetal bovine serum and Penicillin-Streptomycin were purchased from Gibco. Dimethyl sulfoxide (DMSO) was purchased from Sigma.
(§2) To investigate whether a compound is able to inhibit the activity of Bcl-2 in cells, a mechanism-based assay using DOHH2 (DSMZ No.® ACC 47) and RS4; 11 (ATCC® CRL-1873™) cell was developed. In this assay, inhibition of Bcl-2 was detected by the inhibition of DOHH2 and RS4; 11 cells proliferation. DOHH2 and RS4; 11 cells were cultured in culture flasks to 40-80% confluence in RPMI-1640 plus 10% fetal bovine serum. Cells were collected and plated onto 96-well plates at desired cell density (DOHH2: 5000 cells/well; RS4; 11: 30000 cells/well). Plates were incubated overnight at 37° C., with 5% CO2 to adhere. Compounds were added to the plates, and the final compound concentrations were 10000, 3333, 1111, […], 124, 41, 14, 4.6 and 1.5 nM. Plates plated with DOHH2 or RS4; 11 cells were placed at 37° C., with 5% CO2 for 120 h (DOHH2) or 72 h (RS4; 11) respectively. 20 μl MTS/100 μl medium mixture solution were added to each well and incubate the plates for exactly 2 hours. The reaction was stopped by adding 25 μl 10% SDS per well. Measure absorbance at 490 nm and 650 nm (reference wavelength). ICso was calculated using GraphPad Prism 5.0.

The subject of assay [2] is RS4; 11 cells. In words: Cell proliferation assay (MTS), RS4; 11 cells. Format: cell-based. Particulars: RS4, 11 (ATCC CRL-1873) cell proliferation, 30000 cells/well, 72 h, MTS, mechanism-based readout of Bcl-2 inhibition, read-out: RS4, 11 IC50.
Excerpt: as §1, §2

Read-outs that look alike come from different tables or passages of the source.

As for “2-((1H-pyrrolo[2,3-b] pyridin-5-yl)oxy)-4-(4-((4′- chloro-5,5-dimethyl-3,4,5,6- tetrahydro-[1,1′-biphenyl]-2-yl) methyl)piperazin-1-yl)- N-((4-((2-(4-((dimethyl(oxo)-λ^6- sulfanylidene) amino)piperidin-1-yl)ethyl) amino)-3-nitrophenyl)sulfonyl) benzamide [Example 98]”, the IC50 in assay [1] came to 176 nM; in assay [2], 2 nM.

For `C[C@@H](CCN1CCS(=O)(=NC#N)CC1)Nc1ccc(S(=O)(=O)NC(=O)c2ccc(N3CCN(CC4=C(c5ccc(Cl)cc5)CC(C)(C)CC4)CC3)cc2Oc2cnc3[nH]ccc3c2)cc1[N+](=O)[O-]` [Example 95, (S)-2-((1H-pyrrolo[2,3-b]pyridin-5-yl)oxy)-4-(4-((4′-chloro-5,5-dimethyl-3,4,5,6-tetrahydro-[1,1′-biphenyl]-2-yl)methyl)piperazin-1-yl)-N-((4-((4-(1-(cyanoimino)-1-oxido-1λ^6-thiomorpholino)butan-2-yl)amino)-3-nitrophenyl)sulfonyl) benzamide], the IC50 in assay [1] (Homo sapiens, DOHH-2, 120 h) was 71 nM; in assay [2] (Homo sapiens, RS4-11, 72 h), 22 nM.

As to `CCOC(=O)N=S1(=O)CCN(C[C@H](C)Nc2ccc(S(=O)(=O)NC(=O)c3ccc(N4CCN(CC5=C(c6ccc(Cl)cc6)CC(C)(C)CC5)CC4)cc3Oc3cnc4[nH]ccc4c3)cc2[N+](=O)[O-])CC1` [Example 72, ethyl (S)-(4-(2-((4-(N-(2-((1H-pyrrolo[2,3-b]pyridin-5-yl)oxy)-4-(4-((4′-chloro-5,5-dimethyl-3,4,5,6-tetrahydro-[1,1′-biphenyl]-2-yl)methyl)piperazin-1-yl)benzoyl)sulfamoyl)-2-nitrophenyl)amino)propyl)-1-oxido-1λ^6-thiomorpholin-1-ylidene) carbamate], the IC50 in assay [1] (Homo sapiens, DOHH-2, 120 h) was found to be 119 nM; in assay [2] (Homo sapiens, RS4-11, 72 h) it was 68 nM.

With `CC1(C)CCC(CN2CCN(c3ccc(C(=O)NS(=O)(=O)c4ccc(NCC5CCC(N=S(C)(C)=O)CC5)c([N+](=O)[O-])c4)c(Oc4cnc5[nH]ccc5c4)c3)CC2)=C(c2ccc(Cl)cc2)C1` (single isomer, unassigned) [Example 50A, 2-((1H-pyrrolo[2,3-b]pyridin-5-yl)oxy)-4-(4-((4′-chloro-5,5-dimethyl-3,4,5,6-tetrahydro-[1,1′-biphenyl]-2-yl)methyl)piperazin-1-yl)-N-((4-(((4-((dimethyl(oxo)-λ^6-sulfanylidene)amino)cyclohexyl)methyl)amino)-3-nitrophenyl)sulfonyl) benzamide], the IC50 in assay [1] came out at 3.5 nM; in assay [2] (Homo sapiens, RS4-11, 72 h), 3 nM.

For `CC(=O)N=S1(=O)CCN(CCNc2ccc(S(=O)(=O)NC(=O)c3ccc(N4CCN(CC5=C(c6ccc(Cl)cc6)CC(C)(C)CC5)CC4)cc3Oc3cnc4[nH]ccc4c3)cc2[N+](=O)[O-])CC1` [Example 37, 2-((1H-pyrrolo[2,3-b]pyridin-5-yl)oxy)-N-((4-((2-(1-(acetylimino)-1-oxido-1λ^6-thiomorpholino)ethyl)amino)-3-nitrophenyl)sulfonyl)-4-(4-((4′-chloro-5,5-dimethyl-3,4,5,6-tetrahydro-[1,1′-biphenyl]-2-yl)methyl)piperazin-1-yl) benzamide], the IC50 in assay [1] (Homo sapiens, DOHH-2, 120 h) was determined as 228 nM; in assay [2] (Homo sapiens, RS4-11, 72 h), 12 nM.

For `CN=S1(=O)CCN(C[C@H](C)Nc2ccc(S(=O)(=O)NC(=O)c3ccc(N4CCN(CC5=C(c6ccc(Cl)cc6)CC(C)(C)CC5)CC4)cc3Oc3cnc4[nH]ccc4c3)cc2[N+](=O)[O-])CC1` [Example 7, (S)-2-((1H-pyrrolo[2,3-b]pyridin-5-yl)oxy)-4-(4-((4′-chloro-5,5-dimethyl-3,4,5,6-tetrahydro-[1,1′-biphenyl]-2-yl)methyl)piperazin-1-yl)-N-((4-((1-(1-(methylimino)-1-oxido-1λ^6-thiomorpholino)propan-2-yl)amino)-3-nitrophenyl)sulfonyl)benzamide], the IC50 in assay [1] (Homo sapiens, DOHH-2, 120 h) came to 111 nM; in assay [2] (Homo sapiens, RS4-11, 72 h), 55 nM.

For `CC1(C)CCC(CN2CCN(c3ccc(C(=O)NS(=O)(=O)c4ccc(NCCN5CCP(C)(=O)CC5)c([N+](=O)[O-])c4)c(Oc4cnc5[nH]ccc5c4)c3)CC2)=C(c2ccc(Cl)cc2)C1` [Example 2, 2-((1H-pyrrolo[2,3-b]pyridin-5-yl)oxy)-4-(4-((4′-chloro-5,5-dimethyl-3,4,5,6-tetrahydro-[1,1′-biphenyl]-2-yl)methyl)piperazin-1-yl)-N-((4-((2-(4-methyl-4-oxido-1,4-azaphosphinan-1-yl)ethyl)amino)-3-nitrophenyl)sulfonyl)benzamide], the IC50 in assay [1] (Homo sapiens, DOHH-2, 120 h) turned out to be 427 nM; in assay [2] (Homo sapiens, RS4-11, 72 h), 163 nM.

Turning to `CCS(=O)(CC)=NC1CC(CNc2ccc(S(=O)(=O)NC(=O)c3ccc(N4CCN(CC5=C(c6ccc(Cl)cc6)CC(C)(C)CC5)CC4)cc3Oc3cnc4[nH]ccc4c3)cc2[N+](=O)[O-])C1` (centres unmarked) [Example 60, 2-((1H-pyrrolo[2,3-b]pyridin-5-yl)oxy)-4-(4-((4′-chloro-5,5-dimethyl-3,4,5,6-tetrahydro-[1,1′-biphenyl]-2-yl)methyl)piperazin-1-yl)-N-((4-(((3-((diethyl(oxo)-λ^6-sulfanylidene)amino)cyclobutyl)methyl)amino)-3-nitrophenyl)sulfonyl)benzamide], the IC50 was 49 nM in assay [1] (Homo sapiens, DOHH-2, 120 h) and 21 nM in assay [2] (Homo sapiens, RS4-11, 72 h).

With `C[C@@H](CN1CCP(C)(=O)CC1)Nc1ccc(S(=O)(=O)NC(=O)c2ccc(N3CCN(CC4=C(c5ccc(Cl)cc5)CC(C)(C)CC4)CC3)cc2Oc2cnc3[nH]ccc3c2)cc1[N+](=O)[O-]` [Example 17, (S)-2-((1H-pyrrolo[2,3-b]pyridin-5-yl)oxy)-4-(4-((4′-chloro-5,5-dimethyl-3,4,5,6-tetrahydro-[1,1′-biphenyl]-2-yl)methyl)piperazin-1-yl)-N-((4-((1-(4-methyl-4-oxido-1,4-azaphosphinan-1-yl)propan-2-yl)amino)-3-nitrophenyl)sulfonyl)benzamide], the IC50 was determined as 132 nM in assay [1] (Homo sapiens, DOHH-2, 120 h) and 111 nM in assay [2] (Homo sapiens, RS4-11, 72 h).

Consider `C[C@@H](CN1CCS(=N)(=O)CC1)Nc1ccc(S(=O)(=O)NC(=O)c2ccc(N3CCN(CC4=C(c5ccc(Cl)cc5)CC(C)(C)CC4)CC3)cc2Oc2cnc3[nH]ccc3c2)cc1[N+](=O)[O-]` [Example 45, (S)-2-((1H-pyrrolo[2,3-b]pyridin-5-yl)oxy)-4-(4-((4′-chloro-5,5-dimethyl-3,4,5,6-tetrahydro-[1,1′-biphenyl]-2-yl)methyl)piperazin-1-yl)-N-((4-((1-(1-imino-1-oxido-1λ^6-thiomorpholino)propan-2-yl)amino)-3-nitrophenyl)sulfonyl) benzamide], for which the IC50 in assay [1] (Homo sapiens, DOHH-2, 120 h) was 121 nM; in assay [2] (Homo sapiens, RS4-11, 72 h), 119 nM.

For the compound `C[C@@H](CCN1CCS(=O)(=NC(=O)C2CC2)CC1)Nc1ccc(S(=O)(=O)NC(=O)c2ccc(N3CCN(CC4=C(c5ccc(Cl)cc5)CC(C)(C)CC4)CC3)cc2Oc2cnc3[nH]ccc3c2)cc1[N+](=O)[O-]` [Example 83, (S)-2-((1H-pyrrolo[2,3-b]pyridin-5-yl)oxy)-4-(4-((4′-chloro-5,5-dimethyl-3,4,5,6-tetrahydro-[1,1′-biphenyl]-2-yl)methyl)piperazin-1-yl)-N-((4-((4-(1-((cyclopropanecarbonyl)imino)-1-oxido-1λ^6-thiomorpholino)butan-2-yl)amino)-3-nitrophenyl)sulfonyl)benzamide], the IC50 in assay [1] (Homo sapiens, DOHH-2, 120 h) was 47 nM; in assay [2] (Homo sapiens, RS4-11, 72 h) it was 18 nM.

As to `CCN=S1(=O)CCC(CNc2ccc(S(=O)(=O)NC(=O)c3ccc(N4CCN(CC5=C(c6ccc(Cl)cc6)CC(C)(C)CC5)CC4)cc3Oc3cnc4[nH]ccc4c3)cc2[N+](=O)[O-])CC1` (centres unmarked) [Example 30, 2-((1H-pyrrolo[2,3-b]pyridin-5-yl)oxy)-4-(4-((4′-chloro-5,5-dimethyl-3,4,5,6-tetrahydro-[1,1′-biphenyl]-2-yl)methyl)piperazin-1-yl)-N-((4-(((1-(ethylimino)-1-oxidohexahydro-1λ^6-thiopyran-4-yl)methyl)amino)-3-nitrophenyl)sulfonyl) benzamide], the IC50 in assay [1] (Homo sapiens, DOHH-2, 120 h) stood at 132 nM; in assay [2] (Homo sapiens, RS4-11, 72 h), 43 nM.

`CC1(C)CCC(CN2CCN(c3ccc(C(=O)NS(=O)(=O)c4ccc(NCC(CF)N5CCP(C)(=O)CC5)c([N+](=O)[O-])c4)c(Oc4cnc5[nH]ccc5c4)c3)CC2)=C(c2ccc(Cl)cc2)C1` (centres unmarked) [Example 13, 2-((1H-pyrrolo[2,3-b]pyridin-5-yl)oxy)-4-(4-((4′-chloro-5,5-dimethyl-3,4,5,6-tetrahydro-[1,1′-biphenyl]-2-yl)methyl)piperazin-1-yl)-N-((4-((3-fluoro-2-(4-methyl-4-oxido-1,4-azaphosphinan-1-yl)propyl)amino)-3-nitrophenyl)sulfonyl)benzamide]: the IC50 turned out to be 615 nM in assay [1] (Homo sapiens, DOHH-2, 120 h) and 397 nM in assay [2] (Homo sapiens, RS4-11, 72 h).
